This note sets out measurements from PubChem BioAssay AID1324 (NMMLSC, 2008).

This assay concerns the target glutathione S-transferase (GST-GSH binding). Put plainly: GST–glutathione interaction disruption – biochemical, multiplex beads, flow cytometry, HPSMTB buffer, profiling panel (AID 1324).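 Note: glutathione beads loaded with GST-green fluorescent protein and no fluorescent Bim peptide.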 Particulars: multiplex bead flow cytometry, MCF, concentration not given here.

Activity calls are given as the source filed them. The rule behind the calls is not given here.

Turning to `CCOc1ccc(N2C(=O)C(Cl)=C(Nc3ccccc3O)C2=O)cc1`, the percent span inhibition result is “inactive”.

Consider `Cc1ccc(N=c2ssnc2Cl)cc1`, for which the percent span inhibition result is “inactive”. Take `Cc1cccc(-n2c(-c3ccncc3)n[nH]c2=S)c1`: the percent span inhibition result is “inactive”.

For `Cc1sc2nc(C(C)C)nc(SCC(=O)N3c4ccccc4CC3C)c2c1C` (stereo unspecified), the percent span inhibition result was “inactive”.

For the compound `Cc1cccc(OCC(=O)NCC(=O)N/N=C/c2cc(Br)ccc2OCc2ccccc2)c1`, the percent span inhibition entry is “inactive”. Turning to `Nc1ccccc1N=c1ssnc1Cl`, the percent span inhibition entry is “inactive”. `Cc1ccc(C(=O)N(CCCN(C)C)c2nc3ccc(Cl)cc3s2)cc1C`: the percent span inhibition result was “inactive”. To `Cc1ccc(-c2cc(C(=O)Nc3cc(C(=O)O)ccc3C)c3ccccc3n2)cc1` belongs “inactive”; to `COc1ccc(NC(=O)/C(Cl)=C(/Cl)S(=O)Cc2ccccc2)cn1` (stereo unspecified), “inactive”; to `Cc1nnc2ccc(-c3cccc(NC(=O)c4ccco4)c3)nn12`, “inactive”. `CCOC(=O)/C(=C\c1cccc(O)c1)c1nc2sc(C)c(C)c2c(=O)[nH]1`: the percent span inhibition entry is “inactive”. Turning to `O=C(NCCCO)Nc1ccc2nc(-c3ccco3)c(-c3ccco3)nc2c1`, the percent span inhibition entry is “inactive”.

On to `COc1ccccc1-n1c(-c2ccccc2)c[nH]c1=S`, for which the percent span inhibition result was “inactive”. With `c1ccc(Nc2nc(-c3ccncc3)cs2)cc1`, the percent span inhibition entry is “inactive”. Consider `Fc1ccc(/C=C2\CCCC3=C2NC(=S)NC3c2ccc(F)cc2)cc1` (stereo unspecified), for which the percent span inhibition entry was “inactive”. `CC1CC2=C(NC(=S)NC2c2cccc(F)c2)/C(=C/c2cccc(F)c2)C1` (stereo unspecified): the percent span inhibition entry was “inactive”.
